Assay results published in article PMC11124341, “4-Hydroxybenzoic Acid-Based Hydrazide–Hydrazones as Potent Growth Inhibition Agents of Laccase-Producing Phytopathogenic Fungi That Are Useful in the Protection of Oilseed Crops” (Molecules, 2024).

Legend:
NIH3T3 cell line = tested on: NIH3T3 cell line; set-up: method as in PMID 23142671; settings: read-out: IC50 against NIH3T3 cell line; cited from earlier work
Candida = tested on: Candida; set-up: method as in PMID 23142671; settings: cited from earlier work
[1] = tested on: Botrytis cinerea strain FBc05; test: In vitro antifungal activity, mycelial growth inhibition on PDA medium; format: cell-based; settings: screening at basal 50 µg/mL, PDA medium, mean ± SD of three determinations
Description: (§1) The cultures of Botrytis cinerea strain FBc05 and Sclerotinia sclerotiorum strain FSc10 were obtained from the collection of the Division of Plant Pathology and Mycology at the Department of Plant Protection of Wroclaw University of Environmental and Life Sciences (Poland). Cerrena unicolor (Bull.ex.Fr.) Murr, strain no. 139, originated from the culture collection of the Department of Biochemistry, University of Lublin (Poland). The stock cultures were maintained on potato dextrose agar at +4 °C and periodically transferred to a fresh medium.
(§2) Prior to the fungicidal activity assay of hydrazide–hydrazones 1–35, we considered ethanol and DMSO as potential dissolution media for tested compounds. […] Furthermore, a very important aspect of biological testing is the careful selection of organic solvents. These are typically used, e.g., methanol, ethanol, acetone, and DMSO, and may be highly toxic for microorganisms in even very low concentrations, such as 1% (v/v). Ethanol and DMSO with a final concentration between 0.1 and 1.0% (v/v) in a PDA medium were used and applied to evaluate the inhibition growth of B. cinerea, S. sclerotiorum, and C. unicolor (see Supplementary Materials). The following procedure was applied to the microorganism testing. The assays of fungi inhibition growth were performed at a basal concentration of 50 µg/mL for all compounds, and detailed experiments were extended for testing between 0 and 50 µg/mL (0, 6.25, 12.5, 25.0, and 50.0 µg/mL) for selected compounds. The tests were carried out on Petri dishes (diameter 60 mm) with PDA medium containing appropriate compound, co-solvent control, and hydrazide–hydrazone dissolved in co-solvent assay. A piece of mycelium with a 5 mm edge taken from the outer edge of the growing fungi on the PDA plate with co-solvent was transferred to a central part of the PDA plate with the examined compound. The plates thus inoculated were incubated at 22 °C in the dark for a time when the control plate containing only the co-solvent was covered entirely with the tested microorganism. For B. cinerea and S. sclerotiorum, the test took 3 days, and for C. unicolor, it took 7 days. Each assay was performed at least in triplicate. […] Model parameters c and e were estimated using the nonlinear least-squares method. Parameters d and b (with two exceptions) were fixed and assumed to be equal. Based on estimated parameters, the values of IC50 were determined. […] The IC50 values were calculated only in cases when the model predicted a decrease in growth rate by more than 50%.
(§3) In vitro antifungal activity
(§4) Prior to the fungicidal activity assay of hydrazide-hydrazones 1–35, we considered ethanol (EtOH) and DMSO as potential dissolution media for tested compounds.
(§5) EtOH and DMSO with a final concentration between 0.1–1.0% (v/v) in a PDA medium were applied to evaluate the inhibition growth of B. cinerea, S. sclerotiorum, and C. unicolor (see Table S3). The following procedure was applied to the microorganism testing with the hydrazide-hydrazones. The assays of fungi inhibition growth were performed at a basal concentration of 50 µg/mL for all compounds, and detailed experiments were extended for testing selected molecules 18, 19, 27, […]
(§6) Table S2. In vitro antifungal activity for DMSO and ethanol co-solvents.

[2] = tested on: Sclerotinia sclerotiorum strain FSc10; test: as above; format: cell-based; settings: screening at basal 50 µg/mL, PDA medium, mean ± SD of three determinations
Description: as §1, §2, §3, §4, §5, §6

[3] = tested on: Cerrena unicolor strain no. 139; test: as above; format: cell-based; settings: Cerrena unicolor, NO.139; screening at basal 50 µg/mL, PDA medium, mean ± SD of three determinations; read-out: fungal growth inhibition, C. unicolor
Description: as §1, §2, §3, §4, §5, §6

[4] = biological target: laccase from Trametes versicolor; test: Laccase inhibition kinetic study; format: biochemical; settings: determined in this study for 32 (table cites [75]), SD = 5.75 (%)
Description: The inhibition constant for 32 was determined according to procedures and calculations reported previously using commercially available laccase from Trametes versicolor (Sigma-Aldrich).

Row | SMILES | IC50 (NIH3T3 cell line) [µM] | MIC, anticandidal activity (Candida) [mg/mL] | fungal growth inhibition, B. cinerea [1] | fungal growth inhibition, S. sclerotiorum [2] | inhibition of growth at 50 µg/mL [3] [%] | melting point | Ki [4] [µM]
1 | Cn1nnnc1SCC(=O)N/N=C/c1ccc(O)cc1 [II] | 632 | 0.5 to 1.0 | – | – | – | – | –
2 | O=C(N/N=C/c1c(O)cc(O)c(/C=N/NC(=O)c2ccc(O)cc2)c1O)c1ccc(O)cc1 [compound 32, N′,N″-[(2,4,6-trihydroxy-1,3-phenylene)di-(E)-methanylylidene]bis(4-hydroxybenzohydrazide)] | – | – | n.o. | n.o. | 14.3 ± 2.7 | 223 to 226 °C (dec.) | 194
